Reference: a melting point compilation (Tetko et al.; mined from patent text by program, amines drawn as free bases though some values may be those of a salt)

Row | SMILES | melting point [°C]
1 | N#CC(=NNc1ccc(C2=NNC(=O)CC2)cc1)C(N)=C(C#N)C#N | > 300
2 | CC(=O)n1cc(-c2ccccc2)nc1-c1ccccc1C | 102 to 104
3 | O=C(Cc1noc2ccccc12)NS(=O)(=O)c1ccc(Cl)cc1 | 209 to 211
4 | CC(C)(C)OC(=O)NCC1CN(c2cccc(Cl)n2)C1 | 124 to 126
5 | CC1(O/N=C(\C(=O)O)c2csc(N)n2)CCCC1 | 182 to 183
6 | COc1nc2c(N)nc3ccccc3c2n1Cc1ccccc1 | 240 to 242
7 | CCCC1CCC(C2CCC(C3CCCC(=O)C3)CC2)CC1 (stereo unspecified) | 1.5
8 | CCC1C(C)=NN=C(c2ccc(O)c(OC)c2)c2cc(O)c(O)cc21 (stereo unspecified) | 252 to 253
9 | CS(=O)(=O)OCCn1c2ccc(O)cc2c2c3c(c(-c4ccccc4)cc21)C(=O)NC3=O | 271 to 276
10 | Cc1cn(C2CC(O)C(COC(c3ccccc3)(c3ccccc3)c3ccccc3)O2)c(=O)[nH]c1=O (stereo unspecified) | 107 to 110
11 | CCOC(=O)C1(C2c3[nH]c4ccc(Cl)cc4c3CCN2C(=O)c2ccno2)CCC1 (stereo unspecified) | 166 to 167
12 | CSC1CC(c2cc(Cl)c(C)c(Cl)c2)=NNC1=O (stereo unspecified) | 112 to 115
13 | NCCCCn1cnc2c(N)ncnc21 | 62 to 64
14 | Cc1ccc(-c2ncn3c2CN(N(C)C)c2ccccc2-3)cc1 | 204 to 205
15 | O=C1CCC(=NNc2ccc(F)cc2)c2ncccc2N1 | 232 to 233
16 | CCOC(=O)c1cc2ccc(C(C)C)nc2s1 | 73 to 74
17 | O=C(NC(Cc1ccc(C(F)(F)F)cc1)C(O)c1ccc(F)cc1)c1cccc(-c2ccccc2)c1 (stereo unspecified) | 165 to 166
18 | COC(=O)c1ccc(C(=O)c2ccc3c(c2)C2(C)C4(C)CCC(C4)C2(C)O3)cc1 (stereo unspecified) | 150
19 | CSc1nc2c(c(=O)[nH]1)CC2 | 215
20 | COc1ccc2c(c1)-c1noc(N3CCCNCC3)c1CC2 | 106 to 109
21 | CCCc1sc2nc(CCl)c(C(=O)OCC)c(-c3ccc(Cl)cc3)c2c1C | 95 to 96
22 | CC(=O)c1cc(C(C)(C)C)cc(Br)c1O | 98 to 98.5

Row | SMILES | melting point [°C]
23 | CC(=O)OC1CSC(Sc2ccc(C(=O)C(F)(F)F)cc2)C(OC(C)=O)C1OC(C)=O (stereo unspecified) | 143 to 148
24 | CC(C)CC(=O)NC(=O)c1nnn(Cc2ccccc2)c1NC(=O)CC(C)C | 125 to 128
25 | c1ccc(CN(Cc2ccccc2)c2ccc3sccc3c2)cc1 | 114 to 117
26 | Cc1nnc2n1-c1sc(Cl)cc1C(c1ccccc1C(F)(F)F)=NC2 | 193 to 195
27 | CCSCCCCCCCCCCC(=O)O | 58 to 61
28 | CC(C)(C)c1ocnc1C=C(O)C(=O)N[C@@H](Cc1ccccc1)C(N)=O | 50 to 53
29 | CN1CCC(=C2c3ccccc3C3=C(c4ccccc42)C2(C)C=CC3O2)CC1 (stereo unspecified) | 175 to 177
30 | c1ccc(Sc2ccc(-c3ccccc3)s2)cc1 | 72.5 to 74.5
31 | CC(=O)c1cc2c(cn1)[nH]c1ccccc12 | 174 to 175
32 | Oc1ccccc1-n1cnc(-c2ccccc2)n1 | 148 to 154
33 | O=C(c1cc2ccccc2[nH]1)C1CSC(c2cccnc2)N1 (stereo unspecified) | 142 to 144
34 | N#CCC(CC#N)c1cccnc1 | 60 to 61
35 | Cc1oncc1CN1C(=O)C2(COc3cc4c(cc32)OCO4)c2ccccc21 (stereo unspecified) | 159 to 161
36 | Cn1cccc1C(=O)Nc1ccc(-n2nc(C(F)(F)F)cc2C(F)(F)F)cc1 | 148 to 149
37 | CC(=O)Nc1cccc(C)n1 | 87
38 | COc1ccc(CCOc2cncc(Cl)c2)cc1OC | 101 to 102
39 | COc1ccc(N=C(NC(=O)Nc2ccc(-c3ncn(-c4ccc(C(F)(F)F)cc4)n3)cc2)SCOC(=O)C(C)C)c(C)c1 | 160 to 164
40 | O=C1NC(=O)C(Nc2ccc(CCNC[C@H](O)c3ccccc3)cc2)S1 (stereo partly specified) | 55
41 | CCCc1c(S)ccc2c(=O)cc(C(=O)OC)oc12 | 98 to 99
42 | COc1ccc2c(c1)C(=C1CCN(Cc3ccccc3)CC1)C(=O)N2 | 152
43 | O=C(Nc1ccc(Cl)cn1)c1cc(Cl)ccc1NCC1CCN(C2CCCC2)CC1 | 170 to 171
44 | CC(=O)OC1CCC2(C)C(CCC3=C4C(=O)CC(C(C)CCC=O)C4(C)CCC32)C1 (stereo unspecified) | 162 to 164

Row | SMILES | melting point [°C]
45 | CCOP(=O)(CN(Cc1ccncc1)C(=O)Cc1cc(C(C)(C)C)c(O)c(C(C)(C)C)c1)OCC | 160 to 162
46 | O=[N+]([O-])c1ccc(-c2cnc(Nc3ccc(Oc4ccccc4)cc3)s2)cc1 | 191 to 196
47 | NCC1CCc2[nH]c3cc(Cl)c(F)cc3c2C1 (stereo unspecified) | 180 to 181
48 | CC(C)c1cccc(C(C)C)c1OC(=O)c1ccccc1 | 80 to 81
49 | O=Cc1cn(-c2cccnc2)c2ccccc12 | 148 to 150
50 | COc1ccc(COCc2nc(C(C)C)c(I)[nH]2)cc1 | 78 to 79
51 | COc1ccc(C(C)(C#N)CNC(=O)C(N)=O)cc1OC1CCCC1 (stereo unspecified) | 171 to 172
52 | Cc1cc(OCc2ccccc2F)c2cccc(O)c2n1 | 124 to 125
53 | CNC(=O)C(C)(C)N=NC(C)(C)C(=O)NC | 153
54 | CCOc1nn(-c2ccc(C(F)(F)F)cn2)cc1CCCOc1cc(CCC(=O)O)n(C)n1 | 137 to 138
55 | O=C(CCCCCN1CCN(c2cccc(C(F)(F)F)c2)CC1)N1Cc2ccccc2C1 | 100 to 105
56 | Nc1cc(C(F)(F)F)on1 | 44 to 45
57 | Nc1nc2cccnc2c2c1nc(CCO)n2CC1(O)CCOCC1 | 226 to 227
58 | O=C(O)c1c(Sc2ccccc2)c2ccccc2n1-c1ccc2c(c1)OCO2 | 182 to 183
59 | C=CC=CC(=O)Nc1cc2c(Nc3cccc(Br)c3)ncnc2cn1 | 210 to 215
60 | Nc1nnc(-c2ccc(C(F)(F)F)cc2)n1-c1cc(Cl)ccc1O | 147 to 155
61 | O=C(CC(=O)c1cccc(C(F)(F)F)c1NC(=O)C(F)F)Nc1nccs1 | 206
62 | CCOc1cc(CCCN2CCc3cc(OC)c(OC)cc3C2)ccc1NC(=O)c1cccc2c(=O)c3cccc(OC)c3[nH]c12 | 198
63 | CCOc1ccc(NC(=O)NCCc2ccccn2)cc1 | 163 to 164
64 | CC=C1C(=O)c2ccccc2OC1c1ccccc1 (stereo unspecified) | 47 to 49
65 | COC(=O)CCCCCSc1ccc(-c2ccc(Cl)cc2)cc1 | 87 to 88
66 | COc1ccc(CN2C(CN3CCOCC3)=Cc3ccsc3S2(=O)=O)cc1 | 112 to 114

More lines, now with the values ahead:

Row | melting point [°C] | SMILES
67 | 186 to 188 | O=C1CCC(N2Cc3c(OCc4ccc(CN5CCCCC5)cc4)cccc3C2=O)C(=O)N1 (stereo unspecified)
68 | 181 to 182 | COc1cc(OC)cc(-c2nc[nH]c2-c2ccc(OC)c(O)c2)c1
69 | 115 to 118 | COc1ccc(C(N)=S)c(OC)c1
70 | 137 | CC(=O)OC(C)c1ccc(-c2ccc(OCc3ccccc3)cc2)cc1 (single isomer, unassigned; (+))
71 | 227 to 230 | COc1cc2c(Nc3ccc(Cl)cc3F)ncnc2cc1OCCS(C)(=O)=O
72 | 207 to 209 | O=C1CCCC(=O)N1c1ccc([N+](=O)[O-])cc1
73 | 156 to 158 | CCCSc1ncc(C(=O)N[C@H](C(=O)O)[C@@H](C)CC)n1Cc1ccccc1Cl
74 | 191 to 193 | CCc1ccccc1N1CCN(C(=O)Nc2nc3ccccc3nc2OC)CC1
75 | 106 to 108 | CCCc1c(OCCCCCCc2ccc(C(C)(C)C)c(OC)c2OC)ccc(C(=O)OCc2ccccc2)c1O
76 | 190 to 192 | CCC(CC)Oc1cc(C)nc2c1COCN2c1c(C)cc(Cl)cc1C
77 | 86 to 88 | CCOP(=O)(COCCC(CO)On1cnc2c(N)ncnc21)OCC (stereo unspecified)
78 | 226 to 228 | CC(C)C(NC(=O)c1ccccc1SSc1ccccc1C(=O)NC(C(=O)O)C(C)C)C(=O)O (stereo unspecified)
79 | 69 to 70 | CCCc1cc(CP(=O)(OC)OC)c2c(CP(=O)(OC)OC)cccc2c1OC
80 | 158 to 159 | CSc1cc(N)nc(C(N)=O)c1
81 | 190 to 193 | Cn1cc(C2=C(c3cn(CCCNCCN)c4ccccc34)C(=O)NC2=O)c2ccccc21
82 | 233 | Cc1ccc(S(=O)(=O)c2ccc(C(F)(F)F)cc2NC(=O)N[C@@H](Cc2ccc(NC(=O)c3c(Cl)cccc3Cl)cc2)C(=O)O)cc1
83 | 173 to 176 | CNS(=O)(=O)CC(=O)C1=C(C)NC(C)=C(C(=O)OC)C1c1cccc([N+](=O)[O-])c1 (stereo unspecified)
84 | 126 to 128 | CSCCN1C(=O)c2ccccc2Oc2nc(Cl)ccc21

Row | melting point [°C] | SMILES
85 | 206 to 208 | CC(=CN(C)C)C(=O)c1cccc(Cl)c1
86 | 150 | N#Cc1ccc(CN(c2ccc(O)cc2)n2ccnc2)cc1
87 | 90.1 to 91.3 | CCOP(=O)(Cc1ccc2ccccc2c1O)OCC
88 | 110 to 111 | CCCCCCCCC(SCCCCCC)C(=O)Nc1c(OC)cc(Cl)c2ncccc12 (stereo unspecified)
89 | 77 to 79 | CCCCCCCCCCCCc1cnn(C(C(=O)Nc2c(OC)cc(OC)cc2OC)c2ccccc2)c1 (stereo unspecified)
90 | > 300 | COc1cc(C)cc(C(=O)NC(C)P(=O)(O)O)c1C1=CC(=O)c2c(O)cccc2C1=O (stereo unspecified)
91 | 134 to 135 | O=C(O)[C@H](Cc1cccc(OC(F)(F)C(F)F)c1)[C@@H](O)c1ccnc(F)c1 (racemic)
92 | 203 to 205 | C/C(=C\c1ccc(C(=O)O)cc1)c1ccc2c(c1)N(C)CCN2C
93 | 152 to 156 | OC(=S)c1c(F)cccc1-c1ccccc1
94 | 183 to 185 | COC(=O)COc1ccc(F)c2c1c1c(n2Cc2ccccc2)CCCC1C(N)=O (stereo unspecified)
95 | 185 to 192 | Cn1c(=O)c2c(N3CCCCC3)cccc2n2cnc(-c3noc(C4CC4)n3)c12
96 | 222 to 223 | COc1ccccc1N1CCN(CCn2c(=O)[nH]c3ccsc3c2=O)CC1
97 | 110 to 112 | Nc1ncc(C(F)(F)F)cc1[N+](=O)[O-]
98 | 152 | Cc1ccc(CC2CCN(C(=O)c3cc(=O)c4cc(O)ccc4[nH]3)CC2)cc1
99 | 182 | CCc1c(-c2ccc(N3CCN(C)CC3)nn2)ssc1=S
100 | 80 to 82 | Nc1cccc(OCc2ccccc2)c1NC(=O)c1ccc(OCc2ccccc2)c(C23CC4CC(CC(C4)C2)C3)c1
101 | 86 to 87 | CC(=O)Oc1ccccc1C1CCC(=O)CC1
